Experiments:
[1] = biological target: T1, M2 receptor (Rattus norvegicus, UniProt P10980); experiment: M2 receptor binding ((3H)N-methyl scopolamine, heart)
T1 construct: from tissue; host or cells: rat heart, 40,000 g membrane fraction
T1 sequence (P10980 1-466): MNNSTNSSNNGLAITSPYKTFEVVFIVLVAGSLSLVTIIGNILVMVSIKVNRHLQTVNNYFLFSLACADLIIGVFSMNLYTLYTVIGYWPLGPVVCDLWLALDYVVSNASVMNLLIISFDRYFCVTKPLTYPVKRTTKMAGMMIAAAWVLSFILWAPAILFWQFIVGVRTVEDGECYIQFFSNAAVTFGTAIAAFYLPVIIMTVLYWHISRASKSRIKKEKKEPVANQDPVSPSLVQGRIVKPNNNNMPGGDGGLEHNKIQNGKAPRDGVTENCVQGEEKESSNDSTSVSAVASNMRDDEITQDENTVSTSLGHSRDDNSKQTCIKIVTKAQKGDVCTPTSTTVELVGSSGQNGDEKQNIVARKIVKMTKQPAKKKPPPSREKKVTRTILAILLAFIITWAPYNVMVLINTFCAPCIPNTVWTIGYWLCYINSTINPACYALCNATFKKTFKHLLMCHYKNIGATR
Method: The binding ability to M2 receptor was determined according to a modification of the method of Buckley et al. (Mol. Pharmacol., 35, 469 (1989)). Concretely, 10 volume (W/V) of 50 mM Tris-HCl buffer (pH 7.4) was added to rat's heart, and after the homogenization with polytron, the homogenate was centrifuged and washed twice at 500 g for 10 minutes. The resulting supernatant was centrifuged four times at 40,000 g for 20 minutes. To 450 μl of the test liquid which was prepared by re-suspending the resulting precipitate, were added 200 μl of (^3 H)N-methyl scopolamine, a muscarinic specific antagonist, and 100 μl of a test medicinal compound. After the incubation at 22° C. for 90 minutes, the amount of (^3 H)N-methyl scopolamine found was determined.
(§1) Ki is an affinity of a medicinal compound for a receptor, which is calculated from the following formula: [formula]
(§2) In addition, nH is pseudo Hill coefficient which represents the number of a binding part of a receptor. When the values of IC50 and Ki are smaller, a binding ability of a medicinal compound to a receptor is stronger.

[2] = biological target: T2, M1 receptor (Rattus norvegicus, UniProt P08482); experiment: M1 receptor binding ((3H)pirenzepine, cerebral cortex); parameters: species or system Wistar male rat; conditions: for nH (pseudo Hill coefficient) / IC50 / Ki: (3H)pirenzepine, rat cerebral cortex; for IC50: 25° C., 60 minutes, pH 7.4; for Ki: calculated from IC50; for M1 receptor binding ability / selectivity (in words): M1 vs M2; for M1 receptor binding ability compared with muscarinic agonists (in words): vs AF102B and McN-A-343
T2 construct: from tissue; host or cells: Wistar male rat cerebral cortex, washed homogenate
T2 sequence (P08482 1-460): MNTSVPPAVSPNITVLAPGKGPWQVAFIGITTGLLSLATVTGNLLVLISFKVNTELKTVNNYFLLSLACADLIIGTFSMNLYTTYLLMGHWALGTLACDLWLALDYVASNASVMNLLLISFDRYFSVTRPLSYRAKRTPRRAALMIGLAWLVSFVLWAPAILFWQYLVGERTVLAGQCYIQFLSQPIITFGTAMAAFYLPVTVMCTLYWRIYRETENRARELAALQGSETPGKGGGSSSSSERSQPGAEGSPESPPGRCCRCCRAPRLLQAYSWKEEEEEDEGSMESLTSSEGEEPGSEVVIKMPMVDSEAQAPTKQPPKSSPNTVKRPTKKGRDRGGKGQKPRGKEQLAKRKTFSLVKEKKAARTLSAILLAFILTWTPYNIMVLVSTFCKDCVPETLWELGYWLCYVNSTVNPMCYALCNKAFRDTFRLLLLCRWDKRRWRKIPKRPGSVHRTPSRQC
Method: The binding ability of the test compounds to M1 receptor was determined according to a modification of the method of Watson et al. (Life Sci., 32, 3001 (1983)). Concretely, 100 volume (W/V) of 10 mM Na--K phosphate buffer (pH 7.4) was added to a cerebral cortex of a Wistar male rat, and after the homogenization with polytron, the homogenate was centrifuged and washed twice. To 1 ml of the test liquid which was prepared by re-suspending the resulting precipitate, were added 20 μl of (^3 H)pirenzepine, M1 receptor specific antagonist, and 20 μl of a test medicinal compound. After the incubation at 25° C. for 60 minutes, the mixture was filtrated and washed with a glass filter, and an amount of (^3 H)pirenzepine bound to the receptor was counted by means of a liquid scintillation counter.
as §1, §2

[3] = tested on: experimental amnesia in rat induced by lesioning basal forebrain (BF); experiment: Anti-amnesic effect: step-through passive avoidance, amnesia induced by BF lesion (ibotenic acid); assay type: in vivo, Wistar male rat; conditions: for Latency: retention after 24 hours, max 300 s; for minimal effective dose: Rattus norvegicus, oral, BF lesion amnesia, read-out: most potent minimal effective dose
Method: (§3) As experimental animals, Wistar male rats and ddY male mice were used for the experiments after they were housed for a week under every 12 hours'dark-light cycle at room temperature of 24° to 26° C.
The effect on experimental amnesia in rat induced by lesioning basal forebrain (BF) was evaluated.
The experiment was carried out using an experimental apparatus of step-through type passive avoidance task for rat (made by Ohara-ika-sangyoK.K. ) comprising two compartments of dark and light. That is, the dark compartment (height: 200 cm, width: 150 cm, length: 200 cm) was a black plastic box and was floored with stainless grids for giving an electrical shock so that an electricity might be turned on a determined time after interception of a photobeam placed in the dark compartment. The light compartment made of transparent plastic (height: 200 cm, width: 250 cm, length: 200 cm) was provided adjacent to the dark compartment and was lightened from a location spaced 25 cm above by a 60 W electric lamp. Between the two compartments, there was provided an entrance with a guillotine door which could be opened and closed, and when the guillotine door was opened, a rat could freely move from one compartment to another.
Amnesia was induced by BF lesion. Among presently known methods for inducing amnesia, this method is considered to provide an animal model having the most similar pathology to Alzheimer's disease. The BF lesion was carried out by fixing an animal to a stereotaxic apparatus under nembutal anesthesia, inserting a stainless pipe into the BF area according to the brain map of Koenig, and injecting ibotenic acid bilaterally from the stainless pipe. In the sham-operation group, although craniotomy was carried out, ibotenic acid was not injected and therefore BF was not lesioned. The animals were used for experiments after recovery period of about 4 weeks.
Anti-amnesic effect was evaluated according to the following procedure.
A Wistar male rat (9 week-old) previously conditioned in the dark-light box was put in the light compartment and the guillotine door was opened. When the rat moved into the dark compartment, 150 V electrical shock was given for 3 seconds from the floor grid (aquisition trial). After 24 hours, retention trial was carried out in the same manner as in the aquisition trial, and latency, a period until the animal put in the light compartment entered the dark compartment, was measured maximally 300 seconds.
Every test compound was suspended in a distilled water containing 2.5% of gum arabic and 0.2% of Tween 80. […] The doses were 0.01 to 10 mg/kg.

[4] = Acute toxicity test, oral; assay type: in vivo, ddY male mice; conditions: mouse, in vivo; oral, 2 weeks observation; estimated
Method: as §3
(§4) With respect to Compounds 1a and 1b shown in Table 1 as test compounds, the acute toxicity was examined using ddY mice according to the following method.
(§5) In each group, six male ddY mice weighing 27 to 30 g were employed. Compounds 1a and 1b suspended in an aqueous solution of 0.5% sodium carboxymethylcellulose were orally administered in a dose of 0.1 ml/10 g body weight. […] The LD50 (mg/kg) values were estimated from the ratio of the number of dead mice to the number of mice used.

[5] = tested on: ddY mice; experiment: Acute toxicity test, oral; assay type: in vivo, ddY male mice; conditions: 100 mg/kg oral, 2 weeks observation, 0.5% sodium carboxymethylcellulose
Method: as §3, §4, §5

[6] = (3H)N-methyl scopolamine, rat heart, 22° C., 90 minutes, pH 7.4
[7] = 0.1 mg/kg p.o., 1 hour before aquisition trial
[8] = 1.0 mg/kg p.o., 1 hour before aquisition trial

C[N+](C)(C)CC#CCOC(=O)Nc1cccc(Cl)c1 [McN-A-343, 4[[[3-chlorophenyl)amino]carbonyl]oxy]-N, N, N-trimethyl-2-butyn-1-aminium chloride, reference compound]
IC50 [1, 6]: > 10 µM | nH (pseudo Hill coefficient) [2]: 0.9 ± 0.05 | IC50 [2]: 0.842 ± 0.088 µM | Ki [2]: 0.581 ± 0.061 µM

Nc1c2c(nc3ccccc13)CCCC2 [Tacrine, tetrahydroaminoacridine, reference compound]
Latency ([3]; 1.0 mg/kg p.o., 30 minutes before aquisition trial): 79 s | Latency ([3]; 5.0 mg/kg p.o., 30 minutes before aquisition trial): 188 s

CC1OC2(CS1)CN1CCC2CC1 (stereo not drawn) [AF102B, cis-2-methylspiro(1,3-oxathiolane-5,3') quinuclidine, reference compound]
IC50 [1, 6]: > 10 µM | minimal effective dose [3]: 1 mg/kg | nH (pseudo Hill coefficient) [2]: 0.8 ± 0.01 | IC50 [2]: 0.729 ± 0.116 µM | Ki [2]: 0.509 ± 0.08 µM

C(=C1\CN2CCC1CC2)/c1cccc(Oc2ccccc2)c1 [Compound 1b]
LD50 at 336 h [4]: ≥ 100 mg/kg | dead mice [5]: no dead mice | nH (pseudo Hill coefficient) ([1]; (3H)N-methyl scopolamine, rat heart): 1.0 ± 0.02 | IC50 [1, 6]: 4.4 ± 0.1 µM | Ki ([1]; (3H)N-methyl scopolamine, rat heart, calculated from IC50): 1.7 ± 0.04 µM | IC50 ([1]; M2 receptor binding): ≤ 10 µM | M2 receptor binding ability weaker than M1 receptor binding ability ([1]; M2 vs M1): about 190 times | Latency ([3]; 0.01 mg/kg p.o., 1 hour before aquisition trial): 76 s | Latency [3, 7]: 182 s | Latency [3, 8]: 139 s | Latency ([3]; 10 mg/kg p.o., 1 hour before aquisition trial): 99 s | minimal effective dose [3]: 0.1 mg/kg | nH (pseudo Hill coefficient) [2]: 0.8 ± 0.07 | IC50 [2]: 0.023 ± 0.003 µM | Ki [2]: 0.016 ± 0.002 µM | M1 receptor binding ability / selectivity (in words) [2]: strong and specific M1 receptor binding ability | M1 receptor binding ability compared with muscarinic agonists (in words) [2]: stronger binding ability to M1 than muscarinic agonists, AF102B (in course of clinical testing) and McN-A-343

C(=C1/CN2CCC1CC2)/c1cccc(Oc2ccccc2)c1 [Compound 1a]
LD50 at 336 h [4]: ≥ 100 mg/kg | dead mice [5]: no dead mice | IC50 [1, 6]: > 10 µM | Latency [3, 7]: 38 s | Latency [3, 8]: 156 s | minimal effective dose [3]: 1 mg/kg | nH (pseudo Hill coefficient) [2]: 0.9 ± 0.06 | IC50 [2]: 0.221 ± 0.032 µM | Ki [2]: 0.152 ± 0.022 µM | M1 receptor binding ability / selectivity (in words) [2]: strong and specific M1 receptor binding ability | M1 receptor binding ability compared with muscarinic agonists (in words) [2]: stronger binding ability to M1 than muscarinic agonists, AF102B (in course of clinical testing) and McN-A-343

— patent US5494917A, “Cognition enhancing quinuclidine compound” (Kanegafuchi Kagaku Kogyo Kabushiki Kaisha, priority 1993, dated 1996)
